In brackets after ≈: the same amount, converted by molar mass. Read-outs that look alike come from different tables or passages of the source.
Assays:
Assay in all cases: Antibiogram of clinical isolate
Type in all cases: cell-based
Design in all cases: key to Interpretation: R represents “resistant”; I represents “intermediate”; S represents “sensitive”
[1] = tested on: Escherichia coli; conditions: multi-drug resistant veterinary clinical isolate
Protocol: (§1) Veterinary clinical isolates, including Salmonella typhimurium, multi-drug resistant Escherichia coli, methicillin-resistant Staphylococcus aureus (MRSA), and methicillin-resistant Staphylococcus pseudointermedius (MRSP), were kindly provided by Dr. H. Cai (Department of Pathobiology, University of Guelph, ON, Canada). An antibiogram for these strains is available in the supplementary text (Table S1). Gram-negative strains were cultured in Luria−Bertani (LB) broth. Gram-positive strains were cultured in Tryptic soy broth (TSB). Both cultures were grown under aerobic conditions at 37 °C.
(§2) 1 Where R represents “resistant”, I represents “intermediate” and S represents “sensitive”.
(§3) 2 MIC represents the minimal inhibitory concentration of the antibiotic in mcg/mL.
(§4) 3 mm represents the diameter zone of inhibition against antibiotic disc.

[2] = tested on: Methicillin Resistant Staphylococcus aureus; conditions: veterinary clinical isolate
Protocol: as §1, §2, §3, §4

[3] = tested on: Methicillin Resistant Staphylococcus pseudointermedius; conditions: veterinary clinical isolate
Protocol: as §1, §2, §3, §4

[4] = Escherichia coli, read-out: MIC
[5] = Staphylococcus aureus, read-out: MIC

Compound: C[C@@H]1CN(c2c(F)c(F)c3c(=O)c(C(=O)O)cn(C4CC4)c3c2F)C[C@H](C)N1 [Orbifloxacin]
- MIC [1, 4]: > 40 µg/mL
- Interpretation [1]: R
- diameter zone of inhibition against antibiotic disc [1]: 6 mm
- MIC [2, 5]: 0.25 µg/mL (≈ 0.632 µM)
- Interpretation [2]: S
- diameter zone of inhibition against antibiotic disc [2]: 27 mm
- MIC ([3]; Staphylococcus, read-out: MIC): > 40 µg/mL
- Interpretation [3]: R
- diameter zone of inhibition against antibiotic disc [3]: 6 mm

Compound: Amoxicillin-clavulanate
- Interpretation [1]: R
- MIC [1]: > 64 µg/mL
- diameter zone of inhibition against antibiotic disc [1]: 8 mm
- Interpretation [2]: R
- MIC [2]: 14 µg/mL
- diameter zone of inhibition against antibiotic disc [2]: 16 mm
- Interpretation [3]: R
- MIC [3]: 2.9 µg/mL
- diameter zone of inhibition against antibiotic disc [3]: 24 mm

Compound: C[C@@H](O)[C@H]1C(=O)N2C(C(=O)O)=C(SCCN=CN)C[C@H]12 [Imipenem]
- MIC [2, 5]: ≤ 0.56 µg/mL
- Interpretation [2]: R
- diameter zone of inhibition against antibiotic disc [2]: 39 mm

Compound: CCC[C@@H]1C[C@@H](C(=O)N[C@@H]([C@H]2O[C@H](SC)[C@H](O)[C@@H](O)[C@H]2O)[C@H](C)Cl)N(C)C1 [Clindamycin]
- MIC [2, 5]: > 10 µg/mL
- Interpretation [2]: R
- diameter zone of inhibition against antibiotic disc [2]: 6 mm
- MIC ([3]; Staphylococcus, read-out: MIC): > 10 µg/mL
- Interpretation [3]: R
- diameter zone of inhibition against antibiotic disc [3]: 7 mm

Compound: CO/N=C(\C(=O)N[C@@H]1C(=O)N2C(C(=O)O)=C(CSC(=O)c3ccco3)CS[C@H]12)c1csc(N)n1 [Ceftiofur]
- MIC [2, 5]: 3.9 µg/mL (≈ 7.45 µM)
- Interpretation [2]: R
- diameter zone of inhibition against antibiotic disc [2]: 19 mm

Compound: Titracillin-clavulanate
- Interpretation [2]: R
- diameter zone of inhibition against antibiotic disc [2]: 15 mm

Compound: CN1CCN(c2cc3c(cc2F)c(=O)c(C(=O)O)cn3-c2ccc(F)cc2)CC1 [Difloxacin]
- MIC [2, 5]: ≤ 0.07 µg/mL
- Interpretation [2]: S
- diameter zone of inhibition against antibiotic disc [2]: 30 mm

Compound: Trimethoprim-sulfamethoxazole
- Interpretation [1]: R
- MIC [1]: > 10 µg/mL
- diameter zone of inhibition against antibiotic disc [1]: 6 mm
- Interpretation [2]: S
- MIC [2]: <= 4.1 mcg/mL
- diameter zone of inhibition against antibiotic disc [2]: 31 mm
- Interpretation [3]: R
- MIC [3]: > 10 µg/mL
- diameter zone of inhibition against antibiotic disc [3]: 6 mm

Compound: Polymixin-B
- Interpretation [2]: R
- diameter zone of inhibition against antibiotic disc [2]: 9 mm

Compound: CN(C)[C@@H]1C(O)=C(C(N)=O)C(=O)[C@@]2(O)C(O)=C3C(=O)c4c(O)cccc4[C@@](C)(O)[C@H]3C[C@@H]12 [Tetracycline]
- MIC [1, 4]: 16 µg/mL (≈ 36 µM)
- Interpretation [1]: R
- diameter zone of inhibition against antibiotic disc [1]: 13 mm
- MIC [2, 5]: 0.42 µg/mL (≈ 0.945 µM)
- Interpretation [2]: S
- diameter zone of inhibition against antibiotic disc [2]: 31 mm
- MIC ([3]; Staphylococcus, read-out: MIC): > 33 µg/mL
- Interpretation [3]: R
- diameter zone of inhibition against antibiotic disc [3]: 8 mm

Compound: CCN1CCN(c2cc3c(cc2F)c(=O)c(C(=O)O)cn3C2CC2)CC1 [Enrofloxacin]
- MIC [1, 4]: > 18 µg/mL
- Interpretation [1]: R
- diameter zone of inhibition against antibiotic disc [1]: 7 mm
- MIC [2, 5]: ≤ 0.099 µg/mL
- Interpretation [2]: S
- diameter zone of inhibition against antibiotic disc [2]: 29 mm
- MIC ([3]; Staphylococcus, read-out: MIC): > 19 µg/mL
- Interpretation [3]: R
- diameter zone of inhibition against antibiotic disc [3]: 6 mm

Compound: CC1(C)S[C@@H]2[C@H](NC(=O)C(C(=O)O)c3ccccc3)C(=O)N2[C@H]1C(=O)O (stereo partly drawn) [Carbenicillin]
- Interpretation [2]: R
- diameter zone of inhibition against antibiotic disc [2]: 15 mm

Compound: O=C(N[C@H](CO)[C@H](O)c1ccc([N+](=O)[O-])cc1)C(Cl)Cl [Chloramphenicol]
- MIC [2, 5]: 4.5 µg/mL (≈ 13.9 µM)
- Interpretation [2]: S
- diameter zone of inhibition against antibiotic disc [2]: 26 mm

Compound: CO/N=C(/C(=O)N[C@@H]1C(=O)N2C(C(=O)O)=C([C@@H]3CCCO3)CS[C@H]12)c1csc(N)n1 [Cefovecin]
- Interpretation [1]: R
- diameter zone of inhibition against antibiotic disc [1]: 6 mm
- Interpretation [3]: R
- diameter zone of inhibition against antibiotic disc [3]: 21 mm

Compound: CO[C@@]1(NC(=O)Cc2cccs2)C(=O)N2C(C(=O)O)=C(COC(N)=O)CS[C@@H]21 [Cefoxitin]
- MIC [1, 4]: > 69 µg/mL
- Interpretation [1]: R
- diameter zone of inhibition against antibiotic disc [1]: 6 mm
- Interpretation [3]: R
- diameter zone of inhibition against antibiotic disc [3]: 24 mm

Compound: CC1(C)S[C@@H]2[C@H](NC(=O)[C@H](N)c3ccccc3)C(=O)N2[C@H]1C(=O)O [Ampicillin]
- MIC [1, 4]: > 46 µg/mL
- Interpretation [1]: R
- diameter zone of inhibition against antibiotic disc [1]: 6 mm
- MIC [2, 5]: 19 µg/mL (≈ 54.4 µM)
- Interpretation [2]: R
- diameter zone of inhibition against antibiotic disc [2]: 11 mm
- MIC ([3]; Staphylococcus, read-out: MIC): 12 µg/mL (≈ 34.3 µM)
- Interpretation [3]: R
- diameter zone of inhibition against antibiotic disc [3]: 13 mm

Compound: CC1(C)S[C@@H]2[C@H](NC(=O)[C@H](C(=O)O)c3ccsc3)C(=O)N2[C@H]1C(=O)O [Ticarcillin]
- Interpretation [2]: R
- diameter zone of inhibition against antibiotic disc [2]: 14 mm

Compound: CN1CCN(c2c(F)cc3c(=O)c(C(=O)O)cn4c3c2OCN4C)CC1 [Marbofloxacin]
- Interpretation [1]: R
- diameter zone of inhibition against antibiotic disc [1]: 6 mm
- Interpretation [2]: S
- diameter zone of inhibition against antibiotic disc [2]: 27 mm
- Interpretation [3]: R
- diameter zone of inhibition against antibiotic disc [3]: 6 mm

Compound: CC(=O)OCC1=C(C(=O)O)N2C(=O)[C@@H](NC(=O)Cc3cccs3)[C@H]2SC1 [Cephalothin]
- MIC [1, 4]: > 101 µg/mL
- Interpretation [1]: R
- diameter zone of inhibition against antibiotic disc [1]: 6 mm
- MIC [2, 5]: 2.2 µg/mL (≈ 5.55 µM)
- Interpretation [2]: R
- diameter zone of inhibition against antibiotic disc [2]: 25 mm
- MIC ([3]; Staphylococcus, read-out: MIC): 1.4 µg/mL (≈ 3.53 µM)
- Interpretation [3]: R
- diameter zone of inhibition against antibiotic disc [3]: 27 mm

Compound: C=CC1=C(C(=O)O)N2C(=O)[C@@H](NC(=O)/C(=N\OCC(=O)O)c3csc(N)n3)[C@H]2SC1 [Cefixime]
- MIC [2, 5]: > 26 µg/mL
- Interpretation [2]: R
- diameter zone of inhibition against antibiotic disc [2]: 6 mm

Compound: CCN1CCN(C(=O)N[C@@H](C(=O)N[C@@H]2C(=O)N3[C@@H]2SC(C)(C)[C@@H]3C(=O)O)c2ccccc2)C(=O)C1=O [Piperacillin]
- Interpretation [2]: R
- diameter zone of inhibition against antibiotic disc [2]: 12 mm

Compound: CNC(C)C1CCC(N)C(OC2C(N)CC(N)C(OC3OCC(C)(O)C(NC)C3O)C2O)O1 (stereo not drawn) [Gentamicin]
- MIC [1, 4]: 2.6 µg/mL (≈ 5.44 µM)
- Interpretation [1]: S
- diameter zone of inhibition against antibiotic disc [1]: 18 mm
- MIC [2, 5]: 31 µg/mL (≈ 64.9 µM)
- Interpretation [2]: R
- diameter zone of inhibition against antibiotic disc [2]: 9 mm
- MIC ([3]; Staphylococcus, read-out: MIC): 7.9 µg/mL (≈ 16.5 µM)
- Interpretation [3]: I
- diameter zone of inhibition against antibiotic disc [3]: 14 mm

Compound: CC(C)(O/N=C(\C(=O)N[C@@H]1C(=O)N2C(C(=O)[O-])=C(C[n+]3ccccc3)CS[C@H]12)c1csc(N)n1)C(=O)O [Ceftazidime]
- MIC [2, 5]: 41 µg/mL (≈ 75 µM)
- Interpretation [2]: R
- diameter zone of inhibition against antibiotic disc [2]: 13 mm

Compound: NCC[C@H](O)C(=O)N[C@@H]1C[C@H](N)[C@@H](O[C@H]2O[C@H](CN)[C@@H](O)[C@H](O)[C@H]2O)[C@H](O)[C@H]1O[C@H]1O[C@H](CO)[C@@H](O)[C@H](N)[C@H]1O [Amikacin]
- MIC [2, 5]: 9.5 µg/mL (≈ 16.2 µM)
- Interpretation [2]: S
- diameter zone of inhibition against antibiotic disc [2]: 18 mm

Compound: Cc1onc(-c2ccccc2)c1C(=O)N[C@@H]1C(=O)N2[C@@H]1SC(C)(C)[C@@H]2C(=O)O [Oxacillin]
- Interpretation [2]: R
- diameter zone of inhibition against antibiotic disc [2]: 6 mm
- MIC ([3]; Staphylococcus, read-out: MIC): 1.8 µg/mL (≈ 4.48 µM)
- Interpretation [3]: R
- diameter zone of inhibition against antibiotic disc [3]: 14 mm
